Assay results from paper PMC7970697, “Inhibition and Induction by Poziotinib of Different Rat Cytochrome P450 Enzymes In Vivo and in an In Vitro Cocktail Method” (Frontiers in Pharmacology, 2021).
Like-named read-outs stand apart in the source and are kept apart here.

Legend:
cyp2d1 = target: T1, cyp2d1 (Rattus norvegicus, UniProt P10633); assay: Cocktail method IC50 in rat liver microsomes, dextromethorphan probe; format: in vitro ADME
T1 sequence (P10633 1-504): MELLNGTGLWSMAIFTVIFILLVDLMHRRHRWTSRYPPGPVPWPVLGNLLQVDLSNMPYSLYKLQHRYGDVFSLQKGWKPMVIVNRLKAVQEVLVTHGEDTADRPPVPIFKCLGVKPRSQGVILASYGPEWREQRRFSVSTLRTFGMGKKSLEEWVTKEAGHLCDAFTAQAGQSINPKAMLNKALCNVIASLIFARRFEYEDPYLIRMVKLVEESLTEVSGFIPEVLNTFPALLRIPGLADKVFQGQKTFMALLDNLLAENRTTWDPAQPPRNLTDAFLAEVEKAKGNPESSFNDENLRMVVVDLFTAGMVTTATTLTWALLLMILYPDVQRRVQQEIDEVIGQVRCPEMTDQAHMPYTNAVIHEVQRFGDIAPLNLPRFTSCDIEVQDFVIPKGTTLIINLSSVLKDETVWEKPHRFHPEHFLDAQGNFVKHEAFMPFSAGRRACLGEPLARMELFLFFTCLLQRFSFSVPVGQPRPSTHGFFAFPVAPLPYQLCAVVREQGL
Method: (§1) The cocktail method was employed to analyze the effects of poziotinib on cyp1a2, cyp2b1, cyp2c11, cyp2d1, cyp2e1, and cyp3a1/2. […] Then half-maximal inhibitory concentration (IC50) of poziotinib was determined with all of the CYPs. […]. To this cocktail, 1 mg/ml of RLMs, 100 mM potassium phosphate buffer (pH 7.4), poziotinib (1, 2.5, 5, 10, 25, 50, or 100 μM) were added to obtain a final volume of 200 μL. After pre-incubation of this mixture for 5 min in a shaking water bath at 37°C, 1 mM NADPH was added to start the reaction. The reactions were allowed to proceed for 30 min, after which 200 μL of acetonitrile and 20 μL of IS were added to terminate the reactions. The mixtures were vortexed for 30 s and centrifuged again at 13,000 rpm for 5 min.

cyp3a1/2 = assay: Cocktail method IC50 in rat liver microsomes, midazolam probe; format: in vitro ADME
Method: as §1

cyp2b1 [1] = target: T2, cyp2b1 (Rattus norvegicus, UniProt P00176); assay: Time- and concentration-dependent inhibition in RLMs, bupropion; format: in vitro ADME; set-up: from tissue; host or cells: rat liver microsomes, prepared in-house
T2 sequence (P00176 1-491): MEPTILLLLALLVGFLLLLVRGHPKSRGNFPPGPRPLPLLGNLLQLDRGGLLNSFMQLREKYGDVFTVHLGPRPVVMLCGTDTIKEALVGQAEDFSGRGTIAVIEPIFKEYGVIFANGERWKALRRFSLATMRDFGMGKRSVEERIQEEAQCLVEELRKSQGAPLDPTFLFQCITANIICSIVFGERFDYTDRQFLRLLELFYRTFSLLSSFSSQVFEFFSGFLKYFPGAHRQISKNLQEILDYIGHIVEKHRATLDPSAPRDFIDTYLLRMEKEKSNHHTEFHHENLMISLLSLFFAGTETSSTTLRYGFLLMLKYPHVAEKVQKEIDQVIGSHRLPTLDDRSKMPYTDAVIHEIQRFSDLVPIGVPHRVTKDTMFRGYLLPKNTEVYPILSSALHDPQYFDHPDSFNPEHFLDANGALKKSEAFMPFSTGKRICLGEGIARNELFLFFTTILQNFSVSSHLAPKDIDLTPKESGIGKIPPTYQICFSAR
Method: A mixture containing 1 mg/ml of RLMs, different concentrations of poziotinib (0, 2, 4, 8 and16 μM for 2b1; 0, 5, 10 20 and 40 μM for 2c11), and NADPH was pre-incubated at 37°C for 0, 5, 10, and 20 min; Methanol instead of poziotinib was performed as control. Then 20 μM bupropion or 100 μM tolbutamide was added and incubated at 37°C for 30 min. The reactions were carried out and analyzed in triplicate as described in 2.3.

cyp2b1 [2] = target: T2, cyp2b1; assay: Effect of poziotinib on cyp2b1 activity in rats (bupropion pharmacokinetics); format: in vivo, Sprague-Dawley rats; set-up: from tissue; host or cells: living male Sprague-Dawley rats (whole animal); conditions: poziotinib 5 mg/kg oral 7 days, bupropion probe
Method: Twelve male Sprague-Dawley rats (230 ± 20 g) were randomly divided into treated and control groups, with 6 in each group. […] The supernatant was mixed with 200 μL of acetonitrile and 20 μL of 0.5 μg/ml diazepam (IS), vortexed for 30 s, centrifuged at 13,000 rpm for 5 min, and the supernatant was injected into the UPLC-MS/MS system for analysis.
Pharmacokinetic parameters were calculated using DAS software (Version 3.2.8). SPSS software (version 16.0; SPSS Inc., Chicago, IL, United States) was used to analyze the significance of differences between the main pharmacokinetic parameters. p < 0.05 was considered statistically significant. GraphPad (version 8.0; GraphPad Software Inc., San Diego, CA, United States) was used to calculate IC50 and plot the plasma concentration-time curves and inhibition plots (type of inhibition, time- and concentration-dependence).

Compound: C=CC(=O)N1CCC(Oc2cc3c(Nc4ccc(Cl)c(Cl)c4F)ncnc3cc2OC)CC1 [Poziotinib]
- inhibitory effect on cyp2d1 (in words) (cyp2d1): weak inhibition
- inhibitory effect on cyp2d1 (in words) (cyp2d1; listed as poziotinib): not obvious
- IC50 at 30 min (cyp2d1; pH 7.4, probe dextromethorphan (10 μM), 10 μM dextromethorphan, cocktail, 30 min): 62 µM
- inhibitory effect on cyp3a1/2 (in words) (cyp3a1/2): did not show any obvious inhibitory effect
- inhibitory effect on cyp3a1/2 (in words) (cyp3a1/2; listed as poziotinib): not obvious
- IC50 at 30 min (cyp3a1/2; pH 7.4, probe midazolam (5 μM), 5 μM midazolam, cocktail, 30 min): 303 µM
- time- and concentration-dependent inhibition of cyp2b1 (cyp2b1 [1]; pre-incubation 0, 5, 10, 20 min, poziotinib 2-16 μM): no time- or concentration-dependent inhibitory effects
- reversibility of inhibition of cyp2b1 (cyp2b1 [1]; pre-incubation 0, 5, 10, 20 min with NADPH): reversible
- effect on cyp2b1 activity in rats (cyp2b1 [2]): inhibitory effect
